# Columns and labels:
# [1] = system: Acinetobacter calcoaceticus CMX 669; experiment: In vitro antibacterial activity, agar dilution MIC; assay type: cell-based; settings: Acinetobacter calcoaceticus, CMX669
# Description: (§1) Representative compounds of the present invention were assayed in vitro for antibacterial activity as follows: Twelve petri dishes containing successive aqueous dilutions of the test compound mixed with 10 mL of sterilized Brain Heart Infusion (BHI) agar (Difco 0418-01-5) were prepared. Each plate was inoculated with 1:100 (or 1:10 for slow-growing strains, such as Micrococcus and Streptococcus) dilutions of up to 32 different microorganisms, using a Steers replicator block. The inoculated plates were incubated 35°-37° C. for 20 to 24 hours. In addition, a control plate, using BHI agar containing no test compound, was prepared and incubated at the beginning and end of each test.
# (§2) An additional plate containing a compound having known susceptibility patterns for the organisms being tested and belonging to the same antibiotic class as the test compound was also prepared and incubated as a further control, as well as to provide test-to-test comparability. Erythromycin A was used for this purpose.
# (§3) After incubation, each disk was read. The minimum inhibitory concentration (MIC) was defined as the lowest concentration of drug yielding no growth, a slight haze, or sparsely isolated colonies on the inoculum spot as compared to the growth control.
# [2] = system: Enterobacter aerogenes ATCC 13048; experiment: In vitro antibacterial activity, agar dilution MIC; assay type: cell-based; settings: Klebsiella aerogenes, ATCC13048; Enterobacter aerogenes ATCC 13048; BHI agar, 35°-37° C., 20 to 24 hours; read-out: MIC
# Description: as §1, §2, §3
# [3] = system: Enterococcus faecium ATCC 8043; experiment: In vitro antibacterial activity, agar dilution MIC; assay type: cell-based; settings: ATCC8043; Enterococcus faecium ATCC 8043; BHI agar, 35°-37° C., 20 to 24 hours; read-out: MIC
# Description: as §1, §2, §3
# [4] = system: Escherichia coli DC-2; experiment: In vitro antibacterial activity, agar dilution MIC; assay type: cell-based; settings: DC2; Escherichia coli DC-2; BHI agar, 35°-37° C., 20 to 24 hours; read-out: MIC
# Description: as §1, §2, §3
# [5] = system: Escherichia coli H560; experiment: In vitro antibacterial activity, agar dilution MIC; assay type: cell-based; settings: Escherichia coli H560; BHI agar, 35°-37° C., 20 to 24 hours; read-out: MIC
# Description: as §1, §2, §3
# [6] = system: Escherichia coli Juhl; experiment: In vitro antibacterial activity, agar dilution MIC; assay type: cell-based; settings: Escherichia coli Juhl; BHI agar, 35°-37° C., 20 to 24 hours; read-out: MIC
# Description: as §1, §2, §3
# [7] = system: Escherichia coli KNK 437; experiment: In vitro antibacterial activity, agar dilution MIC; assay type: cell-based; settings: KNK437; Escherichia coli KNK 437; BHI agar, 35°-37° C., 20 to 24 hours; read-out: MIC
# Description: as §1, §2, §3
# [8] = system: Klebsiella pneumoniae ATCC 8045; experiment: In vitro antibacterial activity, agar dilution MIC; assay type: cell-based; settings: ATCC8045; Klebsiella pneumoniae ATCC 8045; BHI agar, 35°-37° C., 20 to 24 hours; read-out: MIC
# Description: as §1, §2, §3
# [9] = system: Micrococcus luteus 4698; experiment: In vitro antibacterial activity, agar dilution MIC; assay type: cell-based; settings: Micrococcus luteus 4698; BHI agar, 35°-37° C., 20 to 24 hours; read-out: MIC
# Description: as §1, §2, §3
# [10] = system: Providencia stuartii CMX 640; experiment: In vitro antibacterial activity, agar dilution MIC; assay type: cell-based; settings: CMX640; Providencia stuartii CMX 640; BHI agar, 35°-37° C., 20 to 24 hours; read-out: MIC
# Description: as §1, §2, §3
# [11] = system: Pseudomonas aeruginosa 2862; experiment: In vitro antibacterial activity, agar dilution MIC; assay type: cell-based; settings: Pseudomonas aeruginosa 2862; BHI agar, 35°-37° C., 20 to 24 hours; read-out: MIC
# Description: as §1, §2, §3
# [12] = system: Pseudomonas aeruginosa 5263; experiment: In vitro antibacterial activity, agar dilution MIC; assay type: cell-based; settings: Pseudomonas aeruginosa 5263; BHI agar, 35°-37° C., 20 to 24 hours; read-out: MIC
# Description: as §1, §2, §3
# [13] = system: Pseudomonas aeruginosa A5007; experiment: In vitro antibacterial activity, agar dilution MIC; assay type: cell-based; settings: Pseudomonas aeruginosa A5007; BHI agar, 35°-37° C., 20 to 24 hours; read-out: MIC
# Description: as §1, §2, §3
# [14] = system: Pseudomonas aeruginosa BMH10; experiment: In vitro antibacterial activity, agar dilution MIC; assay type: cell-based; settings: Pseudomonas aeruginosa BMH10; BHI agar, 35°-37° C., 20 to 24 hours; read-out: MIC
# Description: as §1, §2, §3
# [15] = system: Pseudomonas aeruginosa K799/WT; experiment: In vitro antibacterial activity, agar dilution MIC; assay type: cell-based; settings: Pseudomonas aeruginosa K799/WT; BHI agar, 35°-37° C., 20 to 24 hours; read-out: MIC
# Description: as §1, §2, §3
# [16] = system: Pseudomonas cepacia 2961; experiment: In vitro antibacterial activity, agar dilution MIC; assay type: cell-based; settings: Burkholderia cepacia; Pseudomonas cepacia 2961; BHI agar, 35°-37° C., 20 to 24 hours; read-out: MIC
# Description: as §1, §2, §3
# [17] = system: Staphylococcus aureus 1775 Cipro R; experiment: In vitro antibacterial activity, agar dilution MIC; assay type: cell-based; settings: Staphylococcus aureus, 1775CIPROR
# Description: as §1, §2, §3
# [18] = system: Staphylococcus aureus A5177; experiment: In vitro antibacterial activity, agar dilution MIC; assay type: cell-based; settings: Staphylococcus aureus A5177; BHI agar, 35°-37° C., 20 to 24 hours; read-out: MIC
# Description: as §1, §2, §3
# [19] = system: Staphylococcus aureus A5278; experiment: In vitro antibacterial activity, agar dilution MIC; assay type: cell-based; settings: Staphylococcus aureus, A5278
# Description: as §1, §2, §3
# [20] = system: Staphylococcus aureus ATCC 6538P; experiment: In vitro antibacterial activity, agar dilution MIC; assay type: cell-based; settings: ATCC6538P; Staphylococcus aureus ATCC 6538P; BHI agar, 35°-37° C., 20 to 24 hours; read-out: MIC
# Description: as §1, §2, §3
# [21] = system: Staphylococcus aureus CMX 553; experiment: In vitro antibacterial activity, agar dilution MIC; assay type: cell-based; settings: CMX553; Staphylococcus aureus CMX 553; BHI agar, 35°-37° C., 20 to 24 hours; read-out: MIC
# Description: as §1, §2, §3
# [22] = system: Staphylococcus aureus CMX 642a; experiment: In vitro antibacterial activity, agar dilution MIC; assay type: cell-based; settings: CMX642A; Staphylococcus aureus CMX 642a; BHI agar, 35°-37° C., 20 to 24 hours; read-out: MIC
# Description: as §1, §2, §3
# [23] = system: Staphylococcus aureus NCTC 10649; experiment: In vitro antibacterial activity, agar dilution MIC; assay type: cell-based; settings: NCTC10649; Staphylococcus aureus NCTC 10649; BHI agar, 35°-37° C., 20 to 24 hours; read-out: MIC
# Description: as §1, §2, §3
# [24] = system: Staphylococcus epidermidis 3519; experiment: In vitro antibacterial activity, agar dilution MIC; assay type: cell-based; settings: Staphylococcus epidermidis 3519; BHI agar, 35°-37° C., 20 to 24 hours; read-out: MIC
# Description: as §1, §2, §3
# [25] = system: Streptococcus agalactiae 508; experiment: In vitro antibacterial activity, agar dilution MIC; assay type: cell-based; settings: Streptococcus agalactiae 508; BHI agar, 35°-37° C., 20 to 24 hours; read-out: MIC
# Description: as §1, §2, §3
# [26] = system: Streptococcus bovis A5169; experiment: In vitro antibacterial activity, agar dilution MIC; assay type: cell-based; settings: Streptococcus equinus, A5169
# Description: as §1, §2, §3
# [27] = system: Streptococcus pyogenes 2548 induc; experiment: In vitro antibacterial activity, agar dilution MIC; assay type: cell-based; settings: Streptococcus pyogenes 2548 induc; BHI agar, 35°-37° C., 20 to 24 hours; read-out: MIC
# Description: as §1, §2, §3
# [28] = system: Streptococcus pyogenes 930 const; experiment: In vitro antibacterial activity, agar dilution MIC; assay type: cell-based; settings: Streptococcus pyogenes 930 const; BHI agar, 35°-37° C., 20 to 24 hours; read-out: MIC
# Description: as §1, §2, §3
# [29] = system: Streptococcus pyogenes EES61; experiment: In vitro antibacterial activity, agar dilution MIC; assay type: cell-based; settings: Streptococcus pyogenes EES61; BHI agar, 35°-37° C., 20 to 24 hours; read-out: MIC
# Description: as §1, §2, §3
# [30] = system: Escherichia coli SS; experiment: microbe, parasite or virus in culture; settings: Escherichia coli
# Description: as §1, §2, §3
# [31] = system: Micrococcus luteus ATCC 9341; experiment: microbe, parasite or virus in culture; settings: Micrococcus luteus, ATCC9341
# Description: as §1, §2, §3
# [32] = system: Pseudomonas aeruginosa K799/61; experiment: In vitro antibacterial activity, agar dilution MIC; assay type: cell-based; settings: BHI agar, 35°-37° C., 20 to 24 hours, read-out: MIC
structure (smiles),measurement,setting,value
"CC[C@H]1OC(=O)[C@H](C)[C@@H](O[C@H]2C[C@](C)(F)[C@@H](OC)[C@H](C)O2)[C@H](C)[C@@H](O[C@@H]2O[C@H](C)C[C@H](N(C)C)[C@H]2O)[C@@]2(C)CC(C)=C(O2)[C@H](C)[C@H]2OC(=O)O[C@@]21C [Example 17, (3""S)-8,9-Anhydro-11-O,12-O-carbonyl-3""-fluoro-3""-desmethoxy-4""-O-methylerythromycin A-6,9-hemiketal]",MIC,[1],25 µg/mL
same,MIC,[2],> 100 µg/mL
same,MIC,[3],0.39 µg/mL
same,MIC,[4],> 100 µg/mL
same,MIC,[5],> 100 µg/mL
same,MIC,[6],> 100 µg/mL
same,MIC,[7],> 100 µg/mL
same,MIC,[8],> 100 µg/mL
same,MIC,[9],1.56 µg/mL
same,MIC,[10],> 100 µg/mL
same,MIC,[11],> 100 µg/mL
same,MIC,[12],> 100 µg/mL
same,MIC,[13],> 100 µg/mL
same,MIC,[14],> 100 µg/mL
same,MIC,[15],> 100 µg/mL
same,MIC,[16],> 100 µg/mL
same,MIC,[17],25 µg/mL
same,MIC,[18],12.5 µg/mL
same,MIC,[19],25 µg/mL
same,MIC,[20],1.56 µg/mL
same,MIC,[21],1.56 µg/mL
same,MIC,[22],1.56 µg/mL
same,MIC,[23],1.56 µg/mL
same,MIC,[24],1.56 µg/mL
same,MIC,[25],0.2 µg/mL
same,MIC,[26],0.1 µg/mL
same,MIC,[27],1.56 µg/mL
same,MIC,[28],12.5 µg/mL
same,MIC,[29],0.2 µg/mL
same,MIC,[30],3.1 µg/mL
same,MIC,[31],0.1 µg/mL
same,MIC,[32],50 µg/mL
